Patent US11549123B2, “Plant EPSP synthases and methods of use” (PIONEER HI-BRED INTERNATIONAL, INC., priority 2015, dated 2023)

What was measured:
Type in all cases: biochemical
[1] = target: T1, Helianthus annuus EPSPS, native, SEQ ID NO:9 (Helianthus annuus, UniProt A0A251S0N3); assay: EPSPS substrate saturation kinetics, native sunflower
T1 sequence (A0A251S0N3 67-518): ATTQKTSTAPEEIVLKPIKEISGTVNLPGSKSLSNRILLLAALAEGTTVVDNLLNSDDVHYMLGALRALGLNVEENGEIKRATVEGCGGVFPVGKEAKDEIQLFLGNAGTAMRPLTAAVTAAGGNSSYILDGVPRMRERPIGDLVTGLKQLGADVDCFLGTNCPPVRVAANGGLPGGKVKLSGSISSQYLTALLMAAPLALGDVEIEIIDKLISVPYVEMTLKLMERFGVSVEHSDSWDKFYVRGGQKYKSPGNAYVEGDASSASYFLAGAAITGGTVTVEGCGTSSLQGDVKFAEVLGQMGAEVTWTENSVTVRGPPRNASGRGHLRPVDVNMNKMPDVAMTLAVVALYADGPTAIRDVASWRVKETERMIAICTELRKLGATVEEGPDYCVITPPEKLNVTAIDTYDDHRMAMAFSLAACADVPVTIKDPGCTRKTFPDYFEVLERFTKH
Description: (§1) EPSPS activity was determined by quantifying the phosphate generated from the EPSPS reaction. Release of inorganic phosphate was coupled to reaction with 2-amino-6-mercapto-7-methylpurine ribonucleoside, catalyzed by purine-nucleoside phosphorylase (M R Webb, Proc. Natl. Acad. Sci. 89:4884-4887, 1992). The absorbance change that occurs was monitored at 360 nm, where the extinction is 11,200 M^−1 cm^−1, with a Spectramax plate reader (Molecular Devices). To determine kinetic parameters, the varied substrate was present at seven concentrations (the eighth being the blank, containing no substrate) ranging from 4 to 400 uM and the unvaried substrate present at saturation. Six microliters of 50-fold concentrated stock solutions of the varied substrate were placed in the wells of the 96-well assay plate and reactions were started with the addition of a mixture containing 25 mM Hepes, pH 7, 100 mM KCl, 0.3 mM 2-amino-6-mercapto-7-methylpurine ribonucleosde, 1 uM (1 unit/ml) purine-nucleoside phosphorylase (Sigma N8264) and 200 uM of the non-varied substrate. Reactions were monitored with a Spectramax plate reader. The Michaelis-Menten kinetics protocol of the Spectramax software was customized for the substrate concentrations used. The software returns values of KM and Vmax using the Lineweaver-Burke transformation of the Michaelis-Menten equation. To determine kcat, Vmax (uM/min) was divided by the enzyme concentration (uM). […] KI was then calculated from the following form of the Michaelis-Menten equation for competitive inhibition: KI=KM[I]/(KM app−KM) KM approximates the dissociation constant of the enzyme-substrate complex while kcat is the rate of conversion of substrate to product when the substrate concentration is saturating. kcat/KM is a widely accepted parameter for catalytic efficiency when substrate concentration is low (˜KM). […] The parameter kcat/KM×KI is used to quantify both catalytic efficiency and insensitivity and thus the overall fitness of the enzyme.
Native EPSPS amino acid sequences of rice (Oryza sativa) (SEQ ID NO:7), sorghum (Sorghum halepense) (SEQ ID NO:8), and sunflower (Helianthus annus) (SEQ ID NO:9) including the chloroplast transit peptide sequences were assembled and analyzed for mapping the corresponding amino acid mutations from the maize 868-H6. If complete EPSPS sequences were not available, appropriate adjustments were made based on sequence alignments and conserved residue mapping.
There is no complete sequence available for Helianthus annuus. […]
ChloroP Prediction Server (Emanuelsson, O. et al. 1999. Protein Sci. 8(5):978-84) was used to approximate the amino terminus of the mature EPSPS proteins. […] The synthetic genes were cloned into a plasmid vector and expressed, purified and analyzed as described in Example 1.

[2] = target: T2, Zea mays EPSPS variant G-W at positions 103-107 (EPSPS-TGPW; T103G P107W) (Zea mays, UniProt O24566, P106W/T102G); assay: EPSPS substrate saturation kinetics, maize variant 103G 107W (EPSPS-TGPW)
T2 sequence (O24566 with tags, fused parts or gaps T102G/P106W): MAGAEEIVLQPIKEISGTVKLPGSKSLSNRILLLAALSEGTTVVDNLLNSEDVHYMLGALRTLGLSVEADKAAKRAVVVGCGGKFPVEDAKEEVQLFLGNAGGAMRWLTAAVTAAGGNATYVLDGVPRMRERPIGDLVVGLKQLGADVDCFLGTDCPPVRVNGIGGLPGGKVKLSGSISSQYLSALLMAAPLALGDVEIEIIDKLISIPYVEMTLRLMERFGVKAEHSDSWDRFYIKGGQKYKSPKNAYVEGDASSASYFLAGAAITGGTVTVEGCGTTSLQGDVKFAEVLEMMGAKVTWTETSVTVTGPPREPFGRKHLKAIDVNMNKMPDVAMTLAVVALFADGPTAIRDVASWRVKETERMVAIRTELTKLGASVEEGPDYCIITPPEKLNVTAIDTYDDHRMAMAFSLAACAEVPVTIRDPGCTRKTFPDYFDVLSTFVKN
Description: as §1
(§2) NNK-enabled saturation mutagenesis was performed at positions 103 and 107 in the maize EPSPS sequence, and transformed BL21 DE3 cells were screened as described above.

[3] = test system: Zea mays EPSPS variant G-W at positions 103-107 (EPSPS-TGPW; T103G P107W); assay: as above
Description: as §1, §2

[4] = PEP as substrate, glyphosate as inhibitor

C=C(OP(=O)(O)O)C(=O)O [PEP, phosphoenolpyruvate]
kcat ([1]; PEP varied): 29.52 s⁻¹ | Km ([1]; read-out: KM (PEP), PEP varied): 18.8 µM | kcat ([2]; PEP varied): 379 | catalytic efficiency (kcat/KM) relative to native maize EPSPS ([3]; PEP): 5% | higher KM for PEP ([3]; relative to native maize EPSPS): 5 fold | lower kcat ([3]; relative to native maize EPSPS): 4 fold

O=C(O)CNCP(=O)(O)O [glyphosate, N-phosphonomethylglycine]
Ki [1]: 0.15 µM | (kcat/KM)*KI [1, 4]: 14 | Ki [2]: 403 µM | (kcat/KM)*KI [2, 4]: 1862 | less sensitive to glyphosate ([3]; relative to native maize EPSPS): about 3,000 fold
